Data as given in a melting point compilation (Tetko et al.).

melting point [°C] | SMILES
44 to 46 | COc1ncccc1NC(=O)OCC(F)(F)F
54 to 56 | O=C1CCn2cccc21
180 to 182 | O=C(O)c1ccc(Cl)o1
131 to 133 | COC(=O)NC1(C(=O)O)CCCC1
154 to 156 | c1cc(-c2ccn[nH]2)ccn1
189 to 193 | Nc1nc(-c2cccnc2)cs1
38 to 40 | CC=Cc1ccc(OCCCC(=O)OC)c(OC)c1
124 to 126 | O=C(CC1CCCCC1)NCCC1CNc2ccccc21 (configuration not stated)
394 to 396 | CC(N)c1ccc2[nH]c(=O)[nH]c2c1 (configuration not stated)
58 to 61 | N#CCCOc1ccccc1
64 to 66 | CCOC(=O)C(=O)Nc1ccc(C)cc1
98 to 100 | COc1ccc(NC(=O)CCl)c([N+](=O)[O-])c1
122 to 124 | CC(C)(C)c1nc2ccc(S(=O)(=O)Cl)cc2s1
92 to 94 | CC(C)CNC(=O)C(C)Nc1cccc(Br)c1 (configuration not stated)
97 to 99 | Cc1cc(S(N)(=O)=O)c(F)cc1F
179 to 181 | COc1cc(C(=O)O)ccc1OCc1cccnc1
123 to 125 | CC(=O)C12CC3CC(C1)CC(C(=O)O)(C3)C2
66 to 68 | COC(=O)c1c(CC(C)C)csc1N
256 to 258 | Cc1ccccc1NS(=O)(=O)c1ccc(C(=O)O)cc1
216 to 218 | COc1cc(NC(=O)C(C)C)c(C(=O)O)cc1OC
179 to 181 | N#Cc1cccc(OCc2cccc(C(=O)O)c2)c1
123 to 126 | CC(C)(C)OC(=O)NNC(=O)OC(C)(C)C
141 to 144 | NC(COc1ccc(Cl)cc1Cl)=NO
158 to 160 | COC(=O)[C@@H]1C[C@@H](O)CN1C(=O)C12CC3CC(CC(C3)C1)C2
77 to 79 | COC(=O)CCCCCNC(=O)c1ccsc1
272 to 274 | Cn1cc(/C=C/C(=O)O)c(=O)n(C)c1=O
126 to 128 | Nc1ccc(Cl)c(C(=O)NC2CC2)c1

Second part, the compound before the results:

SMILES | melting point [°C]
COc1cc(CC(=O)O)ccc1C | 74 to 76
CC(C)(C)c1cnc(N)s1 | 79 to 81
NC(=O)CCS(=O)(=O)CCCl | 139 to 141
O=C(O)c1ccc2nncn2c1 | 315 to 317
Cc1ccc(S(=O)(=O)N(C)C)cc1N | 172 to 174
OCC1Cc2cc(Br)ccc2O1 (configuration not stated) | 63 to 65
Cc1cc(C)c(-c2cc(N)[nH]n2)cc1C | 145 to 147
CCOCCS(=O)(=O)NCC(=O)O | 63 to 65
O=C(O)c1ccc(CNC(=O)C2CCCC2)cc1 | 228 to 230
CC(C)(C)OC(=O)Nc1ccncc1C=O | 62 to 64
O=S(=O)(Cl)c1csc(-c2ccc(Br)cc2)n1 | 116 to 118
CC(=O)c1cc([N+](=O)[O-])ccc1F | 48 to 50
N#Cc1ccc(Cn2cncn2)c(F)c1 | 107 to 109
Cc1cc(Br)cc2cc(C(=O)C(C)C)oc12 | 69 to 71
O=C(O)c1ncc(Cl)cc1Cl | 139 to 141
CCCOc1nc(C(=O)O)cc2ccccc12 | 159 to 161
Cc1sc(N)nc1-c1ccc(F)c(F)c1 | 135 to 137
FC(F)(F)c1cc(Cl)nc(-c2ccncc2)n1 | 158 to 160
O=C(O)c1ccc2nccnc2c1 | 233 to 235
O=C1CNc2ccc(S(=O)(=O)N3CCCCC3)cc2N1 | 144 to 146
Cc1n[nH]c(C)c1CC(C)C(=O)O (configuration not stated) | 170 to 172
CCCCn1nnnc1CCl | < 17
Cc1nc2c(cnn2C)c(=O)[nH]1 | 274 to 276

SMILES | melting point [°C]
NC(=S)NC1CCOCC1 | 228 to 230
Cc1ccc(-c2csc(=O)n2CC(=O)O)cc1 | 128 to 130
CCOC(=O)c1[nH]c(C)c(C(=O)OCC)c1CC | 108 to 110
COC(=O)Cn1nc2ccc(Cl)nn2c1=O | 158 to 160
COC(=O)c1cc(Br)ccc1S(=O)(=O)Cl | 66 to 70
CC(C)(C)OC(=O)NCc1ccc2c(c1)CCCN2 | 63 to 65
Cc1nn(Cc2ccccc2)c(C)c1CN | 39 to 41
NC(=O)COc1ccc(C(=O)CCl)cc1 | 163 to 165
Cc1nn(C)c(C)c1C(=O)C(N)=O | 182 to 184
Cc1cccc2[nH]c(CO)cc12 | 71 to 73
O=C(O)C1CCN(c2ccc(Cl)cc2)C1=O (configuration not stated) | 158 to 160
Cn1c(CO)nnc1-c1ccccc1 | 184 to 186
Clc1cc(SCc2ccccc2)ncn1 | 71 to 73
Cn1cc(C(=O)O)c(=O)n(C)c1=O | 189 to 191
OCc1ncc(Br)s1 | 73 to 75
O=c1ccc(-c2ccccc2)n[nH]1 | 201 to 204
O=C(Nc1ccccc1)c1cccc(CCl)c1 | 123 to 125
N#Cc1ccc(OCC2CO2)cc1 (configuration not stated) | 64 to 66
CC(C)C(NC(=O)c1ccccc1)c1nn[nH]n1 (configuration not stated) | 176 to 178
COc1ccc(NS(=O)(=O)c2ccc(N)cc2)cc1OC | 171 to 173
Nc1cccc(-n2c(O)c(O)n(C3CC3)c2=O)c1 | 164 to 166
COC(=O)c1cc(N)cc(I)c1 | 79 to 81
